Reference: patent US20260109951A1, “METHODS AND COMPOSITIONS FOR INDUCING HEMATOPOIETIC CELL DIFFERENTIATION” (FATE THERAPEUTICS, INC., priority 2022, published 2026)

Experiments:
[1] = tested on: iPSC-derived NK cells; test: iNK expansion by co-culture with IL21 and 41BBL expressing irK562 feeder cells; assay type: cell-based, human; details: about 3 μM added at day 2 of about 7 day expansion, versus without AhR inhibitor, FIG. 14
Source text: To modulate effector cell activation during the cell expansion stage of iPSC differentiation, an AhR (aryl hydrocarbon receptor) inhibitor was discovered to improve effector cell function, including anti-tumor efficacy. iPSCs were differentiated into definitive HE cells as previously described, and were subsequently differentiated into pre-expansion NK cells, at which point they were expanded by co-culture with IL21 and 41BBL expressed by irK562 feeder cells for about 7 days. An exemplary AhR inhibitor, CH-223191 (among others such as UM729, UM171, SR1), was added to the expansion culture at day 2 with a final concentration of about 3 μM to potentiate expansion signals.

[2] = tested on: tumor; test: anti-tumor efficacy of treated, cryopreserved iNK cells; assay type: cell-based; details: treated and cryopreserved cells versus untreated or control cells, FIG. 15
Source text: Cells that have been treated with CH-223191 were cryopreserved in liquid nitrogen long term. To assess recovery of the cells from cryopreservation, the cells were thawed and cultured in B0 medium for a period of 7 days and cell counts taken during the course of this culture. […] Further, cells that have been treated with CH-223191 and cryopreserved in liquid nitrogen were further assessed for function in vitro and in vivo.

[3] = tested on: hiPSC-derived CD34+ HE cells; test: hiPSC monolayer differentiation to definitive HE, flow cytometric analysis of D10 cells; assay type: cell-based, human
Description: To initiate differentiation towards the hematopoietic lineage, hiPSCs were seeded as a monolayer on Day (D) 0 in the maintenance medium and allowed to adhere and expand for about 24 hours. The monolayers were maintained until around D5-D6 at which point they were dissociated into single cells and seeded as a low-density monolayer until differentiation at around D10. The D10 dissociated single cell population was sorted by FACS for further analysis and marker profiling for definitive HE characterization. Alternatively, or in addition thereto, as disclosed herein, one or more of anti-CD82, anti-CD34, and anti-CD43 antibodies were used for cell sorting the D10 cell population to obtain definitive HE cells comprising a phenotype of CD82^+, CD34^+CD82^+ or CD34^+CD43^−CD82^+, which were optionally cryopreserved in cryopreservation medium or continued with effector cell differentiation.
The flow cytometric analysis of D10 cells differentiated under control conditions was compared to cells differentiated under cytokine conditions that includes BMP4. RUNX1 is a transcription factor expressed in the cell and believed to be mostly associated with HE identity. The cells were gated on single/live events. The […] cells and the […] cells were then stained with anti-human antibodies and analyzed by LEGENDScreen™. […]

[4] = tested on: TNF-α production; details: previously shown; cited from earlier work

Molecule: Cc1ccccc1N=Nc1ccc(NC(=O)c2ccnn2C)c(C)c1 [CH-223191]
- fold expansion and yield of differentiated NK cells [1]: greater fold expansion and yield of differentiated NK cells
- anti-tumor efficacy [2]: enhanced anti-tumor efficacy at endpoint

Molecule: Fc1ccc(-c2nc(C3CCNCC3)sc2-c2ccnc(NC3CC3)n2)cc1 [DBM1285, cyclopropyl-{4-[4-(4-fluorophenyl)-2-piperidin-4-yl-thiazol-5-yl]pyrimidin-2-yl}amine]
- maintenance of CD82 expression (CD82+RUNX1+ subpopulation of CD34+ HE cells) ([3]; p38 MAPK inhibitor added to composition for obtaining definitive HE cells from iPSC): beneficial to maintain CD82 expression
- TNF-α production [4]: inhibit TNF-α production

B1: BMP4: bone morphogenetic protein, cytokine, BMP activator (protein, UniProt P12644 293-408, looked up)
Bone morphogenetic protein 4: SPKHHSQRARKKNKNCRRHSLYVDFSDVGWNDWIVAPPGYQAFYCHGDCPFPLADHLNSTNHAIVQTLVNSVNSSIPKACCVPTELSAISMLYLDEYDKVVLKNYQEMVVEGCGCR
- specification of RUNX1+ HE ([3]; D10 cells, cytokine conditions including BMP4 versus control conditions, FIG. 1): specification of RUNX1^+ HE is cytokine driven
